One block for each compound: values may come before it.
What was measured:
[1] = molecular target: T1, Geranylgeranyl transferase type I (Homo sapiens, UniProt P49354+P53609); assay: Inhibition of GGTase1 isolated from human Burkitt's lymphoma cells assessed as decrease in transfer of [3H]H]geranylgeranyl from [3H]geranylgeranyl PPi to H-Ras-CVLL
[2] = molecular target: T2, Protein farnesyltransferase (Homo sapiens, UniProt P49354+P49356); assay: Inhibition of FTase isolated from human Burkitt's lymphoma cells assessed as decrease in transfer of [3H]farnesyl from [3H]farnesyl PPi to H-Ras-CVLS
[3] = molecular target: T1, Geranylgeranyl transferase type I; assay: Inhibition of GGTase1 (unknown origin) expressed in mouse NIH-3T3 cells transfected with k-Ras4B assessed as decrease in geranylgeranylation of k-Ras4B after 24 hrs by chemoluminescence assay; format: cell-based
[4] = molecular target: T2, Protein farnesyltransferase; assay: Inhibition of FTase (unknown origin) expressed in mouse NIH-3T3 cells transfected with human H-Ras assessed as decrease in farnesylation of H-Ras after 24 hrs by chemoluminescence assay; format: cell-based
[5] = molecular target: T1, Geranylgeranyl transferase type I; assay: Inhibition of GGTase1 (unknown origin); format: protein-complex assay
[6] = molecular target: T2, Protein farnesyltransferase; assay: Inhibition of FTase (unknown origin); format: protein-complex assay
[7] = molecular target: T2, Protein farnesyltransferase; assay: Inhibition of FTase (unknown origin) using H-ras as substrate; format: protein-complex assay
[8] = molecular target: geranylgeranyltransferase type-I (Rattus norvegicus, UniProt P53610+Q04631); assay: Inhibition of rat brain GGTase1 assessed as decrease in transfer of [3H]H]geranylgeranyl from [3H]geranylgeranyl PPi to H-Ras-CVLL after 30 mins by liquid scintillation counting method
[9] = molecular target: T3, Glycylpeptide N-tetradecanoyltransferase (Neosartorya fumigata (strain ATCC MYA-4609 / Af293 / CBS 101355 / FGSCA1100) (Aspergillus fumigatus), UniProt Q9UVX3); assay: Inhibition of recombinant Aspergillus fumigatus NMT (Gln86 to Leu492 residues) expressed in Escherichia coli BL21(DE3) pLysS cells using [3H]-myristoyl coenzyme A/CAP5.5 as substrate after 20 mins by scintillation proximity assay
T3 sequence (Q9UVX3 whole entry): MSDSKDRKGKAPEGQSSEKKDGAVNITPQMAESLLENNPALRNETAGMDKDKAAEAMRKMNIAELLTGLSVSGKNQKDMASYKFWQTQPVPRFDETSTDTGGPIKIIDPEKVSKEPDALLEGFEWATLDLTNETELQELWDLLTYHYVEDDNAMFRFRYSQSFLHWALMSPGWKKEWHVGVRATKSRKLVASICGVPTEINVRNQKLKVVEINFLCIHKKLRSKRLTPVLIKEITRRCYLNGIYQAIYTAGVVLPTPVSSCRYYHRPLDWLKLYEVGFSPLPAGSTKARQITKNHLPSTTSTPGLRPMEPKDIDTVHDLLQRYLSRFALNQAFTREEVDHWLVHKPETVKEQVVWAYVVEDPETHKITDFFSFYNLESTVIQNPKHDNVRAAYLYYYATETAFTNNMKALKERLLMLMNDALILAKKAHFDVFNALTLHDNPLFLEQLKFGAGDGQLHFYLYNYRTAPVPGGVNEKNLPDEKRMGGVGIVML

IC50 [1]: 50 nM
IC50 [2]: 200 nM
SMILES: CC(C)C[C@H](NC(=O)c1ccc(NC[C@@H](N)CS)cc1-c1cccc2ccccc12)C(=O)O

IC50 [7]: 0.8 nM
SMILES: O=C(c1cn(Cc2cncn2Cc2ccc(Br)cc2)cc1-c1cccc2ccccc12)N1CCOCC1

Second part, the compound before the results:

SMILES: COC(=O)[C@H](CC(C)C)NC(=O)c1ccc(NC[C@@H](N)CS)cc1-c1ccccc1
IC50 [3]: 2000 nM
IC50 [4]: > 30000 nM

SMILES: COC(=O)[C@H](CCSC)NC(=O)CN1C[C@H](N(C)C(=O)[C@H](N)CS)N=C(c2ccccc2)c2ccccc21
IC50 [5]: > 1000 nM
IC50 [6]: 41 nM

SMILES: NC(=O)N1CCC(CC(=O)N2CCC([C@H]3c4ncc(Br)cc4CCc4cc(Cl)cc(Br)c43)CC2)CC1 [LONAFARNIB]
IC50 [8]: > 1000 nM

SMILES: Cc1c(NS(=O)(=O)c2c(Cl)cc(-c3ccnc(N4CCNCC4)c3)cc2Cl)c(CC(C)C)nn1C [ZELENIRSTAT]
IC50 [9]: 12 nM

— ChEMBL document CHEMBL4184146, “Interrogating the Roles of Post-Translational Modifications of Non-Histone Proteins” (J Med Chem, 2018)
